Results on 16 compounds are retold here after patent US9346815B2, “5-chloro-2-difluoromethoxyphenyl pyrazolopyrimidine compounds, compositions and methods of use thereof” (Genentech, Inc., priority 2014, dated 2016).

The target in test [1] is isolated recombinant JAK1 kinase domain (Homo sapiens (Human), UniProt P23458). In words: JAK1 enzyme assay (Caliper LabChip, peptide phosphorylation). It counts as biochemical. The following applies: isolated recombinant JAK1 kinase domain, 25 μM ATP.
The target in test [2] is isolated recombinant JAK2 kinase domain (Homo sapiens (Human), UniProt O60674). In words: JAK2 enzyme assay (Caliper LabChip, peptide phosphorylation). It counts as biochemical. To be noted: 25 μM ATP.
isolated recombinant JAK2 kinase domain, sequence (O60674 849-1124): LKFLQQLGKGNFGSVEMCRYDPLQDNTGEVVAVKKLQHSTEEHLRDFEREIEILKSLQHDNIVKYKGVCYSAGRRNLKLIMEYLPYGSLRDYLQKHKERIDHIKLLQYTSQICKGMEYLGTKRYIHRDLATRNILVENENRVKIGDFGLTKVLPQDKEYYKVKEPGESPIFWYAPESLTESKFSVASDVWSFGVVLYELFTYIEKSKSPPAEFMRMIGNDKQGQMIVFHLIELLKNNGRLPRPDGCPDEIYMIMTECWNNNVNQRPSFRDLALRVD

isolated recombinant JAK1 kinase domain, sequence (P23458 875-1153): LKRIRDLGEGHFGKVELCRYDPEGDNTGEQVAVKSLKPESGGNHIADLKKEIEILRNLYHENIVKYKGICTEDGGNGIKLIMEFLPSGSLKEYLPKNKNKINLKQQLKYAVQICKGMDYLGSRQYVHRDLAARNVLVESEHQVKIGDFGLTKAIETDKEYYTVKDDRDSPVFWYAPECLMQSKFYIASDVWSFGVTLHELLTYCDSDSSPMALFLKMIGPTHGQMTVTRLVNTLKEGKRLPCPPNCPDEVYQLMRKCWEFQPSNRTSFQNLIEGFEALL

The term Ki denotes a dissociation constant, usually derived from enzyme kinetics or from competition with a known ligand. Take `Nc1nn2cccnc2c1C(=O)Nc1cn(CC(=O)N2CC3CNCC3C2)nc1-c1cc(Cl)ccc1OC(F)F` (stereo not shown) [Example 10, N-[1-[2-(2,3,3a,4,6,6a-hexahydro-1H-pyrrolo[3,4-c]pyrrol-5-yl)-2-oxo-ethyl]-3-[5-chloro-2-(difluoromethoxy)phenyl]pyrazol-4-yl]-2-amino-pyrazolo[1,5-a]pyrimidine-3-carboxamide]: the Ki came out at 0.65 nM in test [1] and 0.32 nM in test [2].

As to `CN1CCC2CN(C(=O)Cn3cc(NC(=O)c4cnn5cccnc45)c(-c4cc(Cl)ccc4OC(F)F)n3)CC2C1` (stereo not shown) [Example 30, N-[3-[5-chloro-2-(difluoromethoxy)phenyl]-1-[2-(5-methyl-3,3a,4,6,7,7a-hexahydro-1H-pyrrolo[3,4-c]pyridin-2-yl)-2-oxo-ethyl]pyrazol-4-yl]pyrazolo[1,5-a]pyrimidine-3-carboxamide], the Ki is 0.7 nM in test [1] and 1.69 nM in test [2].

Consider `CS(=O)(=O)N1CCC(CN2C[C@@H]3CN(C(=O)Cn4cc(NC(=O)c5cnn6cccnc56)c(-c5cc(Cl)ccc5OC(F)F)n4)C[C@@H]3C2)CC1` [Example 34, N-[1-[2-[(3aR,6aS)-2-[(1-methylsulfonyl-4-piperidyl)methyl]-1,3,3a,4,6,6a-hexahydropyrrolo[3,4-c]pyrrol-5-yl]-2-oxo-ethyl]-3-[5-chloro-2-(difluoromethoxy)phenyl]pyrazol-4-yl]pyrazolo[1,5-a]pyrimidine-3-carboxamide], for which the Ki came to 0.47 nM in test [1] and 0.46 nM in test [2].

On to `CN(C)C1CN(C(=O)Cn2cc(NC(=O)c3cnn4cccnc34)c(-c3cc(Cl)ccc3OC(F)F)n2)C1` [Example 64, N-[3-[5-chloro-2-(difluoromethoxy)phenyl]-1-[2-[3-(dimethylamino)azetidin-1-yl]-2-oxo-ethyl]pyrazol-4-yl]pyrazolo[1,5-a]pyrimidine-3-carboxamide], for which the results for the Ki in test [1] and in test [2] were 0.66 nM and 0.84 nM, respectively.

`CN(C)C[C@H]1CCCN(C(=O)Cn2cc(NC(=O)c3cnn4cccnc34)c(-c3cc(Cl)ccc3OC(F)F)n2)C1` [Example 71, N-[3-[5-chloro-2-(difluoromethoxy)phenyl]-1-[2-[(3R)-3-[(dimethylamino)methyl]-1-piperidyl]-2-oxo-ethyl]pyrazol-4-yl]pyrazolo[1,5-a]pyrimidine-3-carboxamide]: the Ki in test [1] is 1.06 nM; in test [2] it was 4.66 nM.

`CN(C)CCOC1CCN(C(=O)Cn2cc(NC(=O)c3cnn4cccnc34)c(-c3cc(Cl)ccc3OC(F)F)n2)CC1` [Example 73, N-[3-[5-chloro-2-(difluoromethoxy)phenyl]-1-[2-[4-[2-(dimethylamino)ethoxy]-1-piperidyl]-2-oxo-ethyl]pyrazol-4-yl]pyrazolo[1,5-a]pyrimidine-3-carboxamide]: the Ki in test [1] was 0.71 nM; in test [2] it was 1.71 nM.

On to `Nc1nn2cccnc2c1C(=O)Nc1cn(CC(=O)N2CCC(N3CC[C@@H](O)C3)CC2)nc1-c1cc(Cl)ccc1OC(F)F` [Example 76, 2-amino-N-[3-[5-chloro-2-(difluoromethoxy)phenyl]-1-[2-[4-[(3R)-3-hydroxypyrrolidin-1-yl]-1-piperidyl]-2-oxo-ethyl]pyrazol-4-yl]pyrazolo[1,5-a]pyrimidine-3-carboxamide], for which the Ki worked out at 0.5 nM in test [1] and 0.52 nM in test [2].

For the compound `CN(C1CCN(C(=O)Cn2cc(NC(=O)c3cnn4cccnc34)c(-c3cc(Cl)ccc3OC(F)F)n2)CC1)C(Cc1ccccc1)C(F)(F)F` (stereo not shown) [Example 133, N-[1-[2-[4-[(1-benzyl-2,2,2-trifluoro-ethyl)-methyl-amino]-1-piperidyl]-2-oxo-ethyl]-3-[5-chloro-2-(difluoromethoxy)phenyl]pyrazol-4-yl]pyrazolo[1,5-a]pyrimidine-3-carboxamide], the Ki in test [1] amounted to 6.51 nM; in test [2], 8.33 nM.

With `CN(C)CCOC1CCN(C(=O)Cn2cc(NC(=O)c3c(N)nn4cccnc34)c(-c3cc(Cl)ccc3OC(F)F)n2)CC1` [Example 137, 2-amino-N-[3-[5-chloro-2-(difluoromethoxy)phenyl]-1-[2-[4-[2-(dimethylamino)ethoxy]-1-piperidyl]-2-oxo-ethyl]pyrazol-4-yl]pyrazolo[1,5-a]pyrimidine-3-carboxamide], the values for the Ki in test [1] and in test [2] were 0.53 nM and 0.72 nM, respectively.

For the compound `CN(C)C1CN(C(=O)Cn2cc(NC(=O)c3c(N)nn4cccnc34)c(-c3cc(Cl)ccc3OC(F)F)n2)C1` [Example 138, 2-amino-N-[3-[5-chloro-2-(difluoromethoxy)phenyl]-1-[2-[3-(dimethylamino)azetidin-1-yl]-2-oxo-ethyl]pyrazol-4-yl]pyrazolo[1,5-a]pyrimidine-3-carboxamide], the Ki in test [1] was found to be 0.52 nM.

For the compound `Nc1nn2cccnc2c1C(=O)Nc1cn([C@@H]2CCNC2)nc1-c1cc(Cl)ccc1OC(F)F` [Example 185, 2-amino-N-[3-[5-chloro-2-(difluoromethoxy)phenyl]-1-[(3R)-pyrrolidin-3-yl]pyrazol-4-yl]pyrazolo[1,5-a]pyrimidine-3-carboxamide], the results for the Ki in test [1] and in test [2] were 0.59 nM and 0.31 nM, respectively.

As for `CN(CC1(C#N)CCCCC1)C1CCN(C(=O)c2ccc(-n3cc(NC(=O)c4cnn5cccnc45)c(-c4cc(Cl)ccc4OC(F)F)n3)cc2)CC1` [Example 187, N-[3-[5-chloro-2-(difluoromethoxy)phenyl]-1-[4-[4-[(1-cyanocyclohexyl)methyl-methyl-amino]piperidine-1-carbonyl]phenyl]pyrazol-4-yl]pyrazolo[1,5-a]pyrimidine-3-carboxamide], the Ki came out at 7.05 nM in test [1] and 9.03 nM in test [2].

As for `CN(CC1(C#N)CCCCC1)C1CCN(c2nc(-c3cc(Cl)ccc3OC(F)F)c(NC(=O)c3cnn4cccnc34)s2)CC1` [Example 203, N-[4-[5-chloro-2-(difluoromethoxy)phenyl] 2-[4-[(1-cyanocyclohexyl)methyl-methyl-amino]-1-piperidyl]thiazol-5-yl]pyrazolo[1,5-a]pyrimidine-3-carboxamide], the Ki in test [1] is 5.48 nM; in test [2] it was 4.15 nM.

Consider `CN1CCC2(CC1)CN(C(=O)Cn1cc(NC(=O)c3c(N)nn4cccnc34)c(-c3cc(Cl)ccc3OC(F)F)n1)CCO2` [Example 215, 2-amino-N-[3-[5-chloro-2-(difluoromethoxy)phenyl]-1-[2-(9-methyl-1-oxa-4,9-diazaspiro[5.5]undecan-4-yl)-2-oxo-ethyl]pyrazol-4-yl]pyrazolo[1,5-a]pyrimidine-3-carboxamide], for which the Ki in test [1] amounted to 1.33 nM.

Regarding `C[C@@H]1CN(C(=O)Cn2cc(NC(=O)c3c(N)nn4cccnc34)c(-c3cc(Cl)ccc3OC(F)F)n2)C[C@H](C)N1` [Example 251, 2-amino-N-[3-[5-chloro-2-(difluoromethoxy)phenyl]-1-[2-[(3R,5S)-3,5-dimethylpiperazin-1-yl]-2-oxo-ethyl]pyrazol-4-yl]pyrazolo[1,5-a]pyrimidine-3-carboxamide], in test [1], the Ki is 0.83 nM.

Consider `Nc1nn2cccnc2c1C(=O)Nc1cn(CC(=O)N2CC[C@H](O)C2)nc1-c1cc(Cl)ccc1OC(F)F` [Example 270, 2-amino-N-[3-[5-chloro-2-(difluoromethoxy)phenyl]-1-[2-[(3S)-3-hydroxypyrrolidin-1-yl]-2-oxo-ethyl]pyrazol-4-yl]pyrazolo[1,5-a]pyrimidine-3-carboxamide], for which the Ki in test [2] came to 0.2 nM.
